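96-well plates; 48 h exposure; 5 concentrations. Endpoints by linear interpolation between flanking doses. Not reached: highest tested concentration assigned. GI50: concentration for 50% inhibition of growth.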 Activity calls are given as the source filed them. Rule as the data show it: active = GI50 up to about 1.1 µM and inactive = higher. Where a SMILES comes first, the peptide text is derived from it. [ ]: non-standard residue; d: D form. The star is where a group is joined. Octanoyl = CCCCCCCC(=O)*; Aib = CC(C)(N)C(=O)O; tBu = CC(C)(C)*
How the values were obtained:
Assay in all cases: inhibition of tumour cell growth, NCI panel, 48 h
[1] = system: UACC-257
[2] = system: SN12C
[3] = system: RPMI-8226
[4] = system: HCT-116
[5] = system: NCI/ADR-RES
[6] = system: SF-539
[7] = system: NCI-H23
[8] = system: UO-31
[9] = system: HT-29
[10] = system: U-251
[11] = system: RXF 393
[12] = system: T47D
[13] = system: MDA-MB-231
[14] = system: K562
[15] = system: HL-60
[16] = system: SK-OV-3
[17] = system: OVCAR-8
[18] = system: SK-MEL-2
[19] = system: NCI-H226
[20] = system: EKVX

Measured: GI50

N#Cc1c(N)nc(SCc2ccccc2)c(C#N)c1-c1ccc(O)cc1
inactive: [1] > 37.5 µM | [2] 13.8 µM | [3] 5.24 µM | [4] 11.5 µM | [5] 15.7 µM | [6] 19.5 µM | [7] 15.9 µM | [8] 1.81 µM | [9] 8.22 µM | [10] 13.9 µM | [11] 15.9 µM | [12] 5.96 µM | [13] 12.3 µM | [14] 11 µM | [15] 11.3 µM | [16] 15.5 µM | [17] 15 µM | [18] 15.2 µM | [19] 22.4 µM | [20] 9.44 µM

CCOC(=O)c1[nH]cc(C)c1-c1c[nH]c2ccccc12
inactive: [1] 26.2 µM | [2] 56 µM | [3] 7.35 µM | [4] 6.93 µM | [5] 21.4 µM | [6] 22.8 µM | [7] 27.2 µM | [8] 19.3 µM | [9] 21.6 µM | [10] 19.7 µM | [11] 30.1 µM | [12] 36.3 µM | [13] 9.57 µM | [14] 6.04 µM | [15] 6.44 µM | [16] 32.3 µM | [17] 27.1 µM | [18] 29.4 µM | [19] 19.9 µM | [20] > 63.8 µM

CC(C)(C)n1c(=O)[nH]n(C2NN=Cc3cccc4cccc2c34)c1=O (stereo not given)
inactive: [1] 54.3 µM | [2] 79.3 µM | [3] 16.3 µM | [4] 38.5 µM | [5] 32.8 µM | [6] 16.9 µM | [7] 31.6 µM | [8] 14.1 µM | [9] 20.4 µM | [10] 44.2 µM | [11] 10.9 µM | [12] 47.9 µM | [13] 21.5 µM | [14] 17.9 µM | [15] 12.9 µM | [16] 50 µM | [17] 40.3 µM | [18] 32.1 µM | [19] 23.2 µM | [20] 15.4 µM

CCCCCCCC(=O)NC(C)(C)C(=O)NC(COC(C)(C)C)C(=O)NC(CC(C)C)C(=O)NC(C)(C)C(=O)NC(COC(C)(C)C)C(=O)NC(COC(C)(C)C)C(=O)NC(CC(C)C)C(=O)NC(C)(C)C(=O)NC(COC(C)(C)C)C(=O)NC(C(=O)NC(CC(C)C)C(=O)OC)C(C)CC (stereo not given) (Octanoyl-[Aib]S(tBu)L[Aib]S(tBu)S(tBu)L[Aib]S(tBu)IL-OMe; configuration not given here)
inactive: [1] 8.81 µM | [2] 7.57 µM | [3] 2.72 µM | [4] 7.18 µM | [5] > 25 µM | [6] 8.49 µM | [7] 4.7 µM | [8] 14.6 µM | [9] 4.94 µM | [10] 5.24 µM | [11] 3.57 µM | [12] 6.38 µM | [13] 5.86 µM | [14] 5.52 µM | [15] 6.46 µM | [16] 11.8 µM | [17] 8.65 µM | [18] 6.01 µM | [19] 7.33 µM | [20] 6.22 µM

— ChEMBL document CHEMBL1201862, “PubChem BioAssay data set” (2004)
